According to PubChem BioAssay (NCI):
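Briefly, cells in 96-well plates were exposed to five compound concentrations for 48 h, and endpoints were estimated by linear interpolation. Here, GI50 denotes the concentration required for 50% inhibition of growth. TGI: concentration producing complete growth inhibition.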

Assays:
Test in all cases: DTP human tumour cell line panel, 48 h
NCI-H23 lung = tested on: NCI-H23 lung
SK-MEL-28 melanoma = tested on: SK-MEL-28 melanoma
NCI-H226 lung = tested on: NCI-H226 lung
COLO 205 colon = tested on: COLO 205 colon
SNB-19 CNS = tested on: SNB-19 CNS
TK-10 renal = tested on: TK-10 renal
K-562 leukemia = tested on: K-562 leukemia
MOLT-4 leukemia = tested on: MOLT-4 leukemia
MDA-MB-435 = tested on: MDA-MB-435
A549 NSCLC = tested on: A549 NSCLC

Structure (SMILES) | GI50 (NCI-H23 lung) | TGI (NCI-H23 lung) | GI50 (SK-MEL-28 melanoma) | TGI (SK-MEL-28 melanoma) | GI50 (NCI-H226 lung) | TGI (NCI-H226 lung) | GI50 (COLO 205 colon) | TGI (COLO 205 colon) | GI50 (SNB-19 CNS) | TGI (SNB-19 CNS) | GI50 (TK-10 renal) | TGI (TK-10 renal) | GI50 (K-562 leukemia) | TGI (K-562 leukemia) | GI50 (MOLT-4 leukemia) | TGI (MOLT-4 leukemia) | GI50 (MDA-MB-435) | TGI (MDA-MB-435) | GI50 (A549 NSCLC) | TGI (A549 NSCLC)
O=C(NNc1ccccc1)C(=O)NNc1ccccc1 | > 100 µM | > 100 µM | 58.1 µM | > 100 µM | > 100 µM | > 100 µM | 2.73 µM | 48.5 µM | > 100 µM | > 100 µM | 0.919 µM | > 100 µM | 0.396 µM | > 100 µM | 1.6 µM | > 100 µM | 1.84 µM | > 100 µM | 3.53 µM | > 100 µM
COc1ccc(-c2nnc(N3CCN(C(=O)CN4CCN(c5ccccc5)CC4)CC3)nc2-c2ccc(OC)cc2)cc1 | 6.92 µM | > 100 µM | 14.3 µM | > 100 µM | 3.76 µM | > 100 µM | 2.57 µM | 57.2 µM | 12.8 µM | 77.3 µM | 3.52 µM | 47.6 µM | 2.53 µM | > 100 µM | 2.04 µM | 6.64 µM | 6.09 µM | > 100 µM | 4.85 µM | > 100 µM
COC(=O)c1ccc2c(c1)/C(=C\c1cc(Br)c(O)c(Br)c1)C(=O)N2 | 7.22 µM | > 25 µM | 3.96 µM | > 25 µM | 14.6 µM | > 25 µM | 6.8 µM | > 25 µM | 12.4 µM | > 25 µM | 6.79 µM | > 23.3 µM | 8.14 µM | > 25 µM | 7.59 µM | > 24.1 µM | 3.1 µM | > 19.4 µM | 8.19 µM | > 25 µM
O=C(O)c1ccc(C(=O)O)c2c(C(=O)O)ccc(C(=O)O)c12 |  | > 100 µM |  | > 100 µM |  | > 100 µM |  | > 100 µM |  | > 100 µM |  | > 100 µM |  | > 100 µM |  | > 100 µM |  | > 100 µM |  | > 100 µM
CCc1ccc(/C=C/c2ccc(O)c3ncccc23)[n+](C)c1 | 4.2 µM | > 100 µM | 76.2 µM | > 100 µM | > 22.4 µM | > 100 µM | 8.07 µM | > 89.8 µM | 11.5 µM | > 100 µM | > 100 µM | > 100 µM | 0.517 µM | > 100 µM | 3.72 µM | > 100 µM | 4.49 µM | > 100 µM | 0.0377 µM | > 100 µM
CC(C)=CCc1cc2c(cc1O)OC[C@H]1c3cc4c(cc3O[C@@H]21)OCO4 |  | 96.3 µM |  | > 100 µM |  | 69.7 µM |  | > 100 µM |  | > 100 µM |  | > 100 µM |  | > 100 µM |  | 57.4 µM |  | 91.9 µM |  | > 100 µM
